Test results taken from US7087634B2, “Cyclic AMP-specific phosphodiesterase inhibitors” (ICOS Corporation, priority 1999, dated 2006).
pIC50: −log10 of the molar value.

Experiments:
[1] = Combined mouse locomotor activity assay (sedative / CNS side-effect scoring); assay type: in vivo; design: key: Vehicle control animals were rated a single “+”; animals that were effectively immobilized and stretched out on the bottom of the cage with little detectable movement were rated as “++++.”; details: female Balb/c mice, i.p., 10 mg/kg
Method: (§1) The purpose of this study was to determine the efficacy of PDE4 inhibitors in vivo in an LPS mouse model together with a determination with respect to central nervous system (CNS) side-effects manifested by a decrease in spontaneous mobility.
(§2) The test animals were female Balb/c mice, having an average weight of about 20 g. The PDE4 inhibitors, formulated in 30% Cremophor® EL, were administered via intraperitoneal (i.p.) injections at doses of 0.1, 1.0, 10.0, and 100 mg/kg. Individual dose volumes (about 150 μL) were adjusted based on the body weights measured. One hour later, 5 mg/kg LPS in a final volume of 200 μL was injected via the tail vein to each animal. Ninety minutes following the LPS treatment, the animals were bled and serum samples were collected before being stored at −70° C. until assayed.
For side-effect profiling, a subjective visual scoring system was utilized at 5 min and 20 min after administration of PDE4 inhibitors. […] In this instance, the subjects could be monitored continuously over pre-set intervals.
Movement of the X-Y plane, or rearing up on the hind legs, was quantified by counting the number of “light-beam” crosses per unit of time. […] The quantitative scoring correlated well with the subjective measurements described above.

serum TNFα = test: Combined mouse endotoxin-stimulated TNFα release assay (serum TNFα); assay type: in vivo; details: female Balb/c mice, i.p., LPS model
Method: as §1, §2
For efficacy determination, the serum samples were diluted two-fold and TNFα levels were determined using the CYTOSCREEN® Immunoassay Kit (Biosource International). The data were averaged between triplicate sample subjects for each of the tested compounds.

[2] = test system: TNFα release from human peripheral blood lymphocytes; test: Lipopolysaccharide-stimulated TNFα release from human peripheral blood lymphocytes; assay type: cell-based; details: preliminary experiments
Method: The compounds of structural formulae (I) and (II) were tested for an ability to reduce TNFα secretions in human peripheral blood lymphocytes. The ability of a compound to reduce TNFα secretion is related to the EC50 value for the compound (i.e., the effective concentration of the compound capable of inhibiting 50% of the total TNFα).
To assess the ability of a compound to reduce TNFα secretion in human peripheral blood lymphocytes (PBL), the following tests were performed.
Heparinized blood (approximately 30 mL) drawn from human volunteers was mixed 1:1 with Dulbecco's modified phosphate-buffered saline. This mixture was mixed 1:1 with HISTOPAQUE® and centrifuged at 1,500 rpm at room temperature without braking in the swinging bucket of a Beckman model TJ6 centrifuge. Erythrocytes were centrifuged to the bottom of the tubes, and serum remained at the surface of the tubes. A layer containing lymphocytes sedimented between the serum and HISTOPAQUE® layers, and was removed by aspiration to a fresh tube. The cells were quantified and adjusted to […] and a 100 μL aliquot is placed into the wells of a 96 well plate. Test compounds and RPMI media (Gibco/BRL Life Sciences) are added to each of the wells 15 minutes prior to addition of bacterial LPS ([…]). The mixture was allowed to incubate for 20 hours at 37° C. in a humidified chamber. The cells then were separated by centrifuging at 800 rpm for 5 minutes at room temperature. An aliquot of 180 μL of supernatant was transferred to a new plate for determination of TNFα concentration. TNFα protein in the cell supernatant fluids was measured using a commercially available enzyme-linked immunosorbent assay (ELISA) (CYTOSCREEN® Immunoassay Kit from Biosource International).
(§3) The cell-based assay provided the following results for various compounds of the present invention. The EC50. values (i.e., effective concentration of the compound capable of inhibiting 50% of the total TNFα) illustrate the ability of the present compounds to inhibit LPS-stimulated TNFα release from human PBL.
as §3, with “various pyrazole” for “various”, “EC50” for “EC50.”, “concentrations” for “concentration”, “peripheral blood lymphocytes.” for “PBL.”

recombinant human PDE4 = details: background, reported value; read-out: reported IC50 with respect to recombinant human PDE4; cited from earlier work

Compound: COC(=O)N1C[C@@H](c2ccc(OC)c(OC3CCCC3)c2)[C@](C)(C(C)=O)C1 (relative stereo) [Comparative Example, trans-3-(3-cyclopentoxy-4-methoxyphenyl)-1-methoxycarbonyl-4-methyi-4-(methylcarbonyi)pyrrolidine]
- Sedative Effect [1]: +
- % TNFQ Inhibition (serum TNFα; 1 mg/kg): 43%
- % TNFQ Inhibition (serum TNFα; 10 mg/kg): 100%
- % TNFQ Inhibition (serum TNFα; 100 mg/kg): 100%

Compound: COc1ccc(C2CNC(=O)C2)cc1OC1CCCC1 (stereo not drawn) [Rolipram, reference compound]
- LPS-induced TNFα secretion from human lymphocytes [2]: inhibit LPS-induced TNFα secretion from human lymphocytes in a dose-dependent fashion
- pIC50 (recombinant human PDE4): ~6.70
